Measured values: PubChem BioAssay (NCI)
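Compound exposure: 48 hours, 5 concentrations, 96-well plates. TGI: total growth inhibition.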

Key:
Assay in all cases: growth of human tumour cells (NCI), 48 h
786-0 renal = system: 786-0 renal
HL-60(TB) leukemia = system: HL-60(TB) leukemia
OVCAR-5 ovarian = system: OVCAR-5 ovarian
OVCAR-3 ovarian = system: OVCAR-3 ovarian
NCI-H23 lung = system: NCI-H23 lung
SK-MEL-2 melanoma = system: SK-MEL-2 melanoma
SN12C renal = system: SN12C renal
UACC-62 melanoma = system: UACC-62 melanoma
MOLT-4 leukemia = system: MOLT-4 leukemia
BT-549 breast = system: BT-549 breast
PC-3 prostate = system: PC-3 prostate
SW-620 colon = system: SW-620 colon
NCI-H522 lung = system: NCI-H522 lung
NCI-H460 lung = system: NCI-H460 lung
DU-145 prostate = system: DU-145 prostate
U251 CNS = system: U251 CNS
HCT-116 colon = system: HCT-116 colon
SNB-19 CNS = system: SNB-19 CNS
SNB-75 CNS = system: SNB-75 CNS
MDA-MB-435 = system: MDA-MB-435
COLO 205 colon = system: COLO 205 colon
A498 renal = system: A498 renal
OVCAR-4 ovarian = system: OVCAR-4 ovarian
SR leukemia = system: SR leukemia
ACHN renal = system: ACHN renal
SF-295 CNS = system: SF-295 CNS
HCT-15 colon = system: HCT-15 colon
OVCAR-8 ovarian = system: OVCAR-8 ovarian
A549 NSCLC = system: A549 NSCLC
MCF7 breast = system: MCF7 breast
MALME-3M melanoma = system: MALME-3M melanoma
SK-MEL-5 melanoma = system: SK-MEL-5 melanoma
HCC-2998 colon = system: HCC-2998 colon
HOP-62 NSCLC = system: HOP-62 NSCLC
UACC-257 melanoma = system: UACC-257 melanoma
HS 578T breast = system: HS 578T breast
IGROV1 ovarian = system: IGROV1 ovarian
KM12 colon = system: KM12 colon
SK-MEL-28 melanoma = system: SK-MEL-28 melanoma
EKVX NSCLC = system: EKVX NSCLC
HOP-92 NSCLC = system: HOP-92 NSCLC
RXF 393 renal = system: RXF 393 renal
MDA-N = system: MDA-N
MDA-MB-231 breast = system: MDA-MB-231 breast
HT29 colon = system: HT29 colon
RPMI-8226 leukemia = system: RPMI-8226 leukemia
T-47D breast = system: T-47D breast
K-562 leukemia = system: K-562 leukemia
SF-539 CNS = system: SF-539 CNS
LOX IMVI melanoma = system: LOX IMVI melanoma
SK-OV-3 ovarian = system: SK-OV-3 ovarian
CCRF-CEM leukemia = system: CCRF-CEM leukemia
CAKI-1 renal = system: CAKI-1 renal
SF-268 CNS = system: SF-268 CNS
NCI-H226 lung = system: NCI-H226 lung
TK-10 renal = system: TK-10 renal
M14 melanoma = system: M14 melanoma
NCI/ADR-RES ovarian = system: NCI/ADR-RES ovarian
UO-31 renal = system: UO-31 renal

O=C1OC(c2ccccc2)=N/C1=C\c1ccc(Br)cc1 gave a TGI (786-0 renal) greater than 100 µM, a TGI (HL-60(TB) leukemia) greater than 100 µM and a TGI (OVCAR-5 ovarian) greater than 100 µM. The TGI (OVCAR-3 ovarian) was greater than 100 µM, the TGI (NCI-H23 lung) was greater than 100 µM and the TGI (SK-MEL-2 melanoma) was greater than 100 µM. For the same compound, the TGI (SN12C renal) was greater than 100 µM, the TGI (UACC-62 melanoma) was greater than 100 µM and the TGI (MOLT-4 leukemia) was greater than 100 µM. The TGI (BT-549 breast) was greater than 100 µM, the TGI (PC-3 prostate) was greater than 100 µM and the TGI (SW-620 colon) was greater than 100 µM. It also gave a TGI (NCI-H522 lung) greater than 100 µM, a TGI (NCI-H460 lung) greater than 100 µM and a TGI (DU-145 prostate) greater than 100 µM. The TGI (U251 CNS) was greater than 100 µM, the TGI (HCT-116 colon) was greater than 100 µM and the TGI (SNB-19 CNS) was greater than 100 µM. The TGI (SNB-75 CNS) was greater than 100 µM, the TGI (MDA-MB-435) was greater than 100 µM and the TGI (COLO 205 colon) was greater than 100 µM. For the same compound, the TGI (A498 renal) was greater than 100 µM, the TGI (OVCAR-4 ovarian) was greater than 100 µM and the TGI (SR leukemia) was greater than 100 µM. The TGI (ACHN renal) was greater than 100 µM, the TGI (SF-295 CNS) was greater than 100 µM and the TGI (HCT-15 colon) was greater than 100 µM. The TGI (OVCAR-8 ovarian) was greater than 100 µM, the TGI (A549 NSCLC) was greater than 100 µM and the TGI (MCF7 breast) was greater than 100 µM. The TGI (MALME-3M melanoma) was greater than 100 µM, the TGI (SK-MEL-5 melanoma) was greater than 100 µM and the TGI (HCC-2998 colon) was greater than 100 µM. For the same compound, the TGI (HOP-62 NSCLC) was greater than 100 µM, the TGI (UACC-257 melanoma) was greater than 100 µM and the TGI (HS 578T breast) was greater than 100 µM. For the same compound, the TGI (IGROV1 ovarian) was greater than 100 µM, the TGI (KM12 colon) was greater than 100 µM and the TGI (SK-MEL-28 melanoma) was greater than 100 µM. For the same compound, the TGI (EKVX NSCLC) was greater than 100 µM, the TGI (HOP-92 NSCLC) was greater than 100 µM and the TGI (RXF 393 renal) was greater than 100 µM. The TGI (MDA-N) was greater than 100 µM, the TGI (MDA-MB-231 breast) was greater than 100 µM and the TGI (HT29 colon) was greater than 100 µM. It also gave a TGI (RPMI-8226 leukemia) greater than 100 µM, a TGI (T-47D breast) greater than 100 µM and a TGI (K-562 leukemia) greater than 100 µM. The TGI (SF-539 CNS) was greater than 100 µM, the TGI (LOX IMVI melanoma) was greater than 100 µM and the TGI (SK-OV-3 ovarian) was greater than 100 µM. For the same compound, the TGI (CCRF-CEM leukemia) was greater than 100 µM, the TGI (CAKI-1 renal) was greater than 100 µM and the TGI (SF-268 CNS) was greater than 100 µM. The TGI (NCI-H226 lung) was greater than 100 µM, the TGI (TK-10 renal) was greater than 100 µM and the TGI (M14 melanoma) was greater than 100 µM.
C=Cc1c(C)c(O)cc2c1-c1ccc(O)c(C)c1CC2 showed a TGI (786-0 renal) of 34 µM, a TGI (HL-60(TB) leukemia) of 38.6 µM and a TGI (OVCAR-5 ovarian) greater than 100 µM. It also gave a TGI (OVCAR-3 ovarian) greater than 100 µM, a TGI (NCI-H23 lung) of 41.3 µM and a TGI (SK-MEL-2 melanoma) of 35.5 µM. It also gave a TGI (SN12C renal) of 43.1 µM, a TGI (UACC-62 melanoma) of 23.1 µM and a TGI (MOLT-4 leukemia) of 30.6 µM. For the same compound, the TGI (BT-549 breast) was 59.7 µM, the TGI (SW-620 colon) was 54.6 µM and the TGI (NCI-H522 lung) was 43.1 µM. It also gave a TGI (NCI-H460 lung) of 45 µM, a TGI (DU-145 prostate) of 28.5 µM and a TGI (U251 CNS) of 34.3 µM. The TGI (HCT-116 colon) was 28.4 µM, the TGI (SNB-19 CNS) was 74.5 µM and the TGI (MDA-MB-435) was 28.2 µM. It also gave a TGI (COLO 205 colon) of 41.8 µM, a TGI (A498 renal) of 27.7 µM and a TGI (OVCAR-4 ovarian) of 92 µM. For the same compound, the TGI (SR leukemia) was 17.7 µM, the TGI (ACHN renal) was 81.1 µM and the TGI (SF-295 CNS) was 32.2 µM. It also gave a TGI (HCT-15 colon) of 44.5 µM, a TGI (OVCAR-8 ovarian) of 39.4 µM and a TGI (A549 NSCLC) of 55.7 µM. For the same compound, the TGI (MCF7 breast) was 38.9 µM, the TGI (MALME-3M melanoma) was 45.9 µM and the TGI (SK-MEL-5 melanoma) was 33 µM. The TGI (HCC-2998 colon) was 35.3 µM, the TGI (HOP-62 NSCLC) was 83.8 µM and the TGI (UACC-257 melanoma) was 28 µM. The TGI (HS 578T breast) was 21.7 µM, the TGI (IGROV1 ovarian) was 35.6 µM and the TGI (KM12 colon) was 30 µM. The TGI (SK-MEL-28 melanoma) was 31.5 µM, the TGI (EKVX NSCLC) was 24.3 µM and the TGI (HOP-92 NSCLC) was 54.5 µM. For the same compound, the TGI (RXF 393 renal) was 30.2 µM, the TGI (NCI/ADR-RES ovarian) was 71.8 µM and the TGI (MDA-N) was 36.6 µM. For the same compound, the TGI (MDA-MB-231 breast) was 60.6 µM, the TGI (HT29 colon) was 53.2 µM and the TGI (RPMI-8226 leukemia) was 56.6 µM. For the same compound, the TGI (T-47D breast) was 27.1 µM, the TGI (SF-539 CNS) was 29.3 µM and the TGI (LOX IMVI melanoma) was 31.8 µM. For the same compound, the TGI (SK-OV-3 ovarian) was 36.2 µM, the TGI (CCRF-CEM leukemia) was 40.6 µM and the TGI (UO-31 renal) was 32.2 µM. For the same compound, the TGI (CAKI-1 renal) was 46.2 µM, the TGI (SF-268 CNS) was 63.5 µM and the TGI (NCI-H226 lung) was 43 µM. It also gave a TGI (TK-10 renal) of 41.4 µM and a TGI (M14 melanoma) of 52.5 µM.
